{"source": "patent US12281149B2", "about": "“Modulators of G-protein coupled receptors” (priority 2021, dated 2025)", "type_in_all_cases": "cell-based", "key": {"GLP-1 receptor [1]": {"target": "T1, GLP-1 receptor (Homo sapiens, UniProt P43220)", "T1 sequence (P43220 24-463)": "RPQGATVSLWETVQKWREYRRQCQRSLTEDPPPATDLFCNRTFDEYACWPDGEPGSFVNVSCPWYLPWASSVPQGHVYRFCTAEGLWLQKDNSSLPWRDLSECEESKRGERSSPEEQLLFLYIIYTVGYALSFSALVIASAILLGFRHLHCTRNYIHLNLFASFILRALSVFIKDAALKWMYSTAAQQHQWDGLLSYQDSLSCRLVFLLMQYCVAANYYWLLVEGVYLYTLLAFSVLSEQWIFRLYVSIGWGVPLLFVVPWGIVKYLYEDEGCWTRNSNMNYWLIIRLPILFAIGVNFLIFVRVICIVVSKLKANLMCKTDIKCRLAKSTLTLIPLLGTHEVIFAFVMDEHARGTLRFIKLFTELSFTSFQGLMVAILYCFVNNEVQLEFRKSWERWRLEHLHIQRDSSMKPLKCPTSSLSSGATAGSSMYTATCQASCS", "assay": "HitHunter cAMP assay, GLP-1 receptor", "conditions": "for EC50: CHO cells stably expressing human GLP-1 receptor, cAMP accumulation, 30 min, read-out: EC50 GLP-1R; for Emax: CHO cells, cAMP, normalized to maximum signal from GLP-1 (high) and DMSO (low), read-out: Emax GLP-1R"}, "GIP receptor [2]": {"target": "T2, GIP receptor (Homo sapiens, UniProt P48546)", "T2 sequence (P48546 22-466)": "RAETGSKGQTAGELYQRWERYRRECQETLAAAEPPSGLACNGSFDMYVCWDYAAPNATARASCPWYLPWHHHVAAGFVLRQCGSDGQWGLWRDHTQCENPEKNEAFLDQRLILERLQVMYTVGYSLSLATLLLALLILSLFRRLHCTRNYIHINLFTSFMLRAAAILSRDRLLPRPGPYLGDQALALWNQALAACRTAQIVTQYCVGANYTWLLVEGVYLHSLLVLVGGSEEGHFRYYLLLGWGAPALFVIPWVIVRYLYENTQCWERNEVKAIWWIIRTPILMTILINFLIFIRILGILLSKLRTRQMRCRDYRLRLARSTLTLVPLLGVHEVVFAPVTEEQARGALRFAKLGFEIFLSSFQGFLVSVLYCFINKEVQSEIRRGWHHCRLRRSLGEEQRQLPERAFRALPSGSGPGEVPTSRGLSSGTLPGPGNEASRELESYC", "assay": "HitHunter cAMP assay, GIP receptor", "conditions": "for EC50: CHO cells stably expressing GIP receptor, cAMP accumulation, 30 min, read-out: EC50 GIP-1R; for Emax: CHO cells, cAMP, normalized to maximum signal from GIP (high) and DMSO (low), read-out: Emax GIP-1R"}, "GLP-1 receptor [3]": {"target": "T1, GLP-1 receptor", "assay": "PathHunter β-arrestin assay, GLP-1 receptor", "parameters": "host or cells: PathHunter CHO-K1 GLP1R β-Arrestin Cell Line", "conditions": "β-arrestin-2 recruitment, PathHunter CHO-K1 GLP1R β-Arrestin Cell Line, 90 min at 37° C.; normalized to GLP-1; read-out: GLP-1R β Arrestin EC50"}, "GIP receptor [4]": {"target": "T2, GIP receptor", "assay": "PathHunter β-arrestin assay, GIP receptor", "parameters": "host or cells: PathHunter CHO-K1 GIPR β-Arrestin Cell Line", "conditions": "β-arrestin-2 recruitment, PathHunter CHO-K1 GIPR β-Arrestin Cell Line, 90 min at 37° C.; normalized to GIP; read-out: GIPR β Arrestin EC50"}}, "note": "*1 amine or outer side, *2 acyl side, *3 side chain or, on linkers, in order; H or OH if unused. Where a SMILES comes first, the peptide text is derived from it. Side-chain parts run from the residue outwards. [ ]: non-standard residue; d: D form. The star is where a group is joined. C20 diacid = O=C(O)CCCCCCCCCCCCCCCCCCC(=O)*; αMePhe(2-F) = C[C@](N)(Cc1ccccc1F)C(=O)O; γGlu = O=C(O)[C@H](CCC(=O)[*:2])N[*:1]; X50 = CC(C)(N*)c1ccc(F)c(F)c1; X8 = O=C(CCNCc1cc(O)cc(F)c1)*; Suc = O=C(CCC(=O)[*:2])[*:1]; AEEA = NCCOCCOCC(=O)O; Aib = CC(C)(N)C(=O)O; CO = O=C([*:1])[*:2]; X12 = Fc1cccc(N*)c1; GABA = NCCCC(=O)O; βAla = NCCC(=O)O; NHPr = CCCN*"}
{"smiles": "CC[C@H](C)[C@H](NC(=O)[C@H](CC(C)C)NC(=O)[C@H](Cc1c[nH]c2ccccc12)NC(=O)[C@H](CCC(N)=O)NC(=O)[C@@H](NC(=O)[C@H](Cc1ccccc1)NC(=O)[C@H](C)NC(=O)[C@H](CCCCNC(=O)COCCOCCNC(=O)COCCOCCNC(=O)CC[C@H](NC(=O)CCCCCCCCCCCCCCCCCCC(=O)O)C(=O)O)NC(=O)[C@H](CCC(N)=O)NC(=O)[C@H](C)NC(=O)[C@@H](NC(=O)[C@H](CCCCN)NC(=O)[C@H](CC(=O)O)NC(=O)[C@H](CC(C)C)NC(=O)C(C)(C)NC(=O)[C@@H](NC(=O)[C@H](CO)NC(=O)[C@H](Cc1ccc(O)cc1)NC(=O)[C@H](CC(=O)O)NC(=O)[C@H](CO)NC(=O)[C@@H](NC(=O)[C@H](Cc1ccccc1)NC(=O)[C@@H](NC(=O)CNC(=O)[C@H](CCC(=O)O)NC(=O)CCNCc1cc(O)cc(F)c1)[C@@H](C)O)[C@@H](C)O)[C@@H](C)CC)[C@@H](C)CC)C(C)C)C(=O)N[C@@H](C)C(=O)NCC(=O)NCC(=O)N1CCC[C@H]1C(=O)N[C@@H](CO)C(=O)N[C@@H](CO)C(=O)NCC(=O)N[C@@H](C)C(=O)N1CCC[C@H]1C(=O)N1CCC[C@H]1C(=O)N1CCC[C@H]1C(=O)N[C@@H](CO)C(N)=O", "note": "[Compound 277] (X8-EGTFTSDYSI[Aib]LDKIAQK([AEEA-AEEA-γGlu-C20 diacid])AFVQWLIAGGPSSGAPPPS-NH2)", "values": [{"measurement": "EC50", "setting": "GLP-1 receptor [1]", "result": "1 to 10", "unit": "nM"}, {"measurement": "Emax", "setting": "GLP-1 receptor [1]", "result": 89, "unit": "%"}, {"measurement": "EC50", "setting": "GIP receptor [2]", "result": "100 to 1000", "unit": "nM"}, {"measurement": "Emax", "setting": "GIP receptor [2]", "result": 6, "unit": "%"}, {"measurement": "EC50", "setting": "GLP-1 receptor [3]", "result": "> 1000", "unit": "nM"}, {"measurement": "EC50", "setting": "GIP receptor [4]", "result": "> 1000", "unit": "nM"}]}
{"smiles": "CC[C@H](C)[C@H](NC(=O)[C@H](CC(C)C)NC(=O)[C@H](Cc1c[nH]c2ccccc12)NC(=O)[C@H](CCC(N)=O)NC(=O)[C@@H](NC(=O)[C@H](Cc1ccccc1)NC(=O)[C@H](C)NC(=O)[C@H](CCCCNC(=O)COCCOCCNC(=O)COCCOCCNC(=O)CC[C@H](NC(=O)CCCCCCCCCCCCCCCCCCC(=O)O)C(=O)O)NC(=O)[C@H](CCC(N)=O)NC(=O)[C@H](C)NC(=O)[C@@H](NC(=O)[C@H](CCCCN)NC(=O)[C@H](CC(=O)O)NC(=O)[C@H](CC(C)C)NC(=O)C(C)(C)NC(=O)[C@@H](NC(=O)[C@H](CO)NC(=O)[C@H](Cc1ccc(O)cc1)NC(=O)[C@H](CC(=O)O)NC(=O)[C@H](CO)NC(=O)[C@@H](NC(=O)[C@H](Cc1ccccc1)NC(=O)[C@@H](NC(=O)CNC(=O)[C@H](CCC(=O)O)NC(=O)CCC(=O)NC(C)(C)c1ccc(F)c(F)c1)[C@@H](C)O)[C@@H](C)O)[C@@H](C)CC)[C@@H](C)CC)C(C)C)C(=O)N[C@@H](C)C(=O)NCC(=O)NCC(=O)N1CCC[C@H]1C(=O)N[C@@H](CO)C(=O)N[C@@H](CO)C(=O)NCC(=O)N[C@@H](C)C(=O)N1CCC[C@H]1C(=O)N1CCC[C@H]1C(=O)N1CCC[C@H]1C(=O)N[C@@H](CO)C(N)=O", "note": "[Compound 280] ({X50-Suc}-EGTFTSDYSI[Aib]LDKIAQK([AEEA-AEEA-γGlu-C20 diacid])AFVQWLIAGGPSSGAPPPS-NH2)", "values": [{"measurement": "EC50", "setting": "GLP-1 receptor [1]", "result": "1 to 10", "unit": "nM"}, {"measurement": "Emax", "setting": "GLP-1 receptor [1]", "result": 90, "unit": "%"}, {"measurement": "EC50", "setting": "GIP receptor [2]", "result": "1 to 10", "unit": "nM"}, {"measurement": "Emax", "setting": "GIP receptor [2]", "result": 114, "unit": "%"}, {"measurement": "EC50", "setting": "GLP-1 receptor [3]", "result": "> 1000", "unit": "nM"}, {"measurement": "EC50", "setting": "GIP receptor [4]", "result": "> 1000", "unit": "nM"}]}
{"smiles": "CCCNC(=O)NC(C)(C)C(=O)NCCC(=O)N[C@@H](CCC(=O)O)C(=O)NCC(=O)N[C@H](C(=O)N[C@@H](Cc1ccccc1)C(=O)N[C@H](C(=O)N[C@@H](CO)C(=O)N[C@@H](CC(=O)O)C(=O)N[C@@H](Cc1ccc(O)cc1)C(=O)N[C@@H](CO)C(=O)N[C@H](C(=O)NC(C)(C)C(=O)N[C@@H](CC(C)C)C(=O)N[C@@H](CC(=O)O)C(=O)N[C@@H](CCCCN)C(=O)N[C@H](C(=O)N[C@@H](C)C(=O)N[C@@H](CCC(N)=O)C(=O)N[C@@H](CCCCNC(=O)COCCOCCNC(=O)COCCOCCNC(=O)CC[C@H](NC(=O)CCCCCCCCCCCCCCCCCCC(=O)O)C(=O)O)C(=O)N[C@@H](C)C(=O)N[C@@H](Cc1ccccc1)C(=O)N[C@H](C(=O)N[C@@H](CCC(N)=O)C(=O)N[C@@H](Cc1c[nH]c2ccccc12)C(=O)N[C@@H](CC(C)C)C(=O)N[C@H](C(=O)N[C@@H](C)C(=O)NCC(=O)NCC(=O)N1CCC[C@H]1C(=O)N[C@@H](CO)C(=O)N[C@@H](CO)C(=O)NCC(=O)N[C@@H](C)C(=O)N1CCC[C@H]1C(=O)N1CCC[C@H]1C(=O)N1CCC[C@H]1C(=O)N[C@@H](CO)C(N)=O)[C@@H](C)CC)C(C)C)[C@@H](C)CC)[C@@H](C)CC)[C@@H](C)O)[C@@H](C)O", "note": "[Compound 281] ({NHPr-CO}-[Aib][βAla]EGTFTSDYSI[Aib]LDKIAQK([AEEA-AEEA-γGlu-C20 diacid])AFVQWLIAGGPSSGAPPPS-NH2)", "values": [{"measurement": "EC50", "setting": "GLP-1 receptor [1]", "result": "0.1 to 1", "unit": "nM"}, {"measurement": "Emax", "setting": "GLP-1 receptor [1]", "result": 95, "unit": "%"}, {"measurement": "EC50", "setting": "GIP receptor [2]", "result": "1 to 10", "unit": "nM"}, {"measurement": "Emax", "setting": "GIP receptor [2]", "result": 108, "unit": "%"}, {"measurement": "EC50", "setting": "GLP-1 receptor [3]", "result": "> 1000", "unit": "nM"}, {"measurement": "EC50", "setting": "GIP receptor [4]", "result": "> 1000", "unit": "nM"}]}
{"smiles": "CC[C@H](C)[C@H](NC(=O)[C@H](CC(C)C)NC(=O)[C@H](Cc1c[nH]c2ccccc12)NC(=O)[C@H](CCC(N)=O)NC(=O)[C@@H](NC(=O)[C@H](Cc1ccccc1)NC(=O)[C@H](C)NC(=O)[C@H](CCCCNC(=O)COCCOCCNC(=O)COCCOCCNC(=O)CC[C@H](NC(=O)CCCCCCCCCCCCCCCCCCC(=O)O)C(=O)O)NC(=O)[C@H](CCC(N)=O)NC(=O)[C@H](C)NC(=O)[C@@H](NC(=O)[C@H](CCCCN)NC(=O)[C@H](CC(=O)O)NC(=O)[C@H](CC(C)C)NC(=O)C(C)(C)NC(=O)[C@@H](NC(=O)[C@H](CO)NC(=O)[C@H](Cc1ccc(O)cc1)NC(=O)[C@H](CC(=O)O)NC(=O)[C@H](CO)NC(=O)[C@@H](NC(=O)[C@](C)(Cc1ccccc1F)NC(=O)[C@@H](NC(=O)CNC(=O)[C@H](CCC(=O)O)NC(=O)CCCNC(=O)Nc1cccc(F)c1)[C@@H](C)O)[C@@H](C)O)[C@@H](C)CC)[C@@H](C)CC)C(C)C)C(=O)N[C@@H](C)C(=O)NCC(=O)NCC(=O)N1CCC[C@H]1C(=O)N[C@@H](CO)C(=O)N[C@@H](CO)C(=O)NCC(=O)N[C@@H](C)C(=O)N1CCC[C@H]1C(=O)N1CCC[C@H]1C(=O)N1CCC[C@H]1C(=O)N[C@@H](CO)C(N)=O", "note": "[Compound 282] ({X12-CO-GABA}-EGT[αMePhe(2-F)]TSDYSI[Aib]LDKIAQK([AEEA-AEEA-γGlu-C20 diacid])AFVQWLIAGGPSSGAPPPS-NH2)", "values": [{"measurement": "EC50", "setting": "GLP-1 receptor [1]", "result": "0.1 to 1", "unit": "nM"}, {"measurement": "Emax", "setting": "GLP-1 receptor [1]", "result": 92, "unit": "%"}, {"measurement": "EC50", "setting": "GIP receptor [2]", "result": "10 to 100", "unit": "nM"}, {"measurement": "Emax", "setting": "GIP receptor [2]", "result": 90, "unit": "%"}, {"measurement": "EC50", "setting": "GLP-1 receptor [3]", "result": "> 1000", "unit": "nM"}, {"measurement": "EC50", "setting": "GIP receptor [4]", "result": "> 1000", "unit": "nM"}]}
